Results as given in patent EP0516861A1, “PYRIDONECARBOXYLIC ACID DERIVATIVE” (BANYU PHARMACEUTICAL CO., LTD., priority 1990, dated 1992).
Values after ≈ are worked out from the molar mass of the structure shown. Counter-ions that a name gives are not always drawn. Like-named read-outs stand apart in the source and are kept apart here.

Key:
S.aureus BB5769 = assay: In vitro antibacterial activity, agar plate dilution method; type: cell-based; conditions: Staphylococcus aureus, MH agar, 10⁶CFU/ml, 16 hours at 37°C, read-out: Minimum inhibitory concentration (MIC) S.aureus BB5769
Description: (§1) One platinum loopful portions of a test strain (quantity of each strain inoculated : 10⁶CFU/ml) cultured overnight in Mueller Hinton broth were inoculated respectively into MH agars containing an antibacterial agent in various concentrations. After 16 hours culture at 37°C, minimum inhibitory concentration (MIC: µg/ml) was measured.

S.aureus BB5703 = assay: as above; type: cell-based; conditions: Staphylococcus aureus, MH agar, 10⁶CFU/ml, 16 hours at 37°C, read-out: Minimum inhibitory concentration (MIC) S.aureus BB5703
Description: as §1

S.aureus JS1 = assay: as above; type: cell-based; conditions: Staphylococcus aureus, β-lactamase-producing bacterium, MH agar, 10⁶CFU/ml, 16 hours at 37°C, read-out: Minimum inhibitory concentration (MIC) S.aureus JS1
Description: as §1

L1210 cells = assay: In vitro cytotoxicity against L1210 murine leukemia (proliferation inhibition); type: cell-based; conditions: Mus musculus, read-out: IC₅₀
Description: In this experiment, respective 2 × 10⁴ L1210 cells were cultured at 37°C under 5% CO₂ gas for 3 days in respective RPMI 1640 media containing a drug in various concentrations and 10 % fetal bovine serum, and the numbers of the cells after the culture were counted using a Coulter counter.

L1210 = assay: Life-span prolonging effect on L1210 leukemia-bearing mice; type: in vivo, CDF₁ mice; conditions: for effect at an administration quantity of 0.02 mg/kg: life-span prolongation, 0.02 mg/kg intraperitoneal
Description: (§2) In this experiment, 10⁶ L1210 cells or 10⁴ P388 cells were intraperitoneally transplanted into CDF₁ mice (♀, 5 weeks old), a drug in the various concentrations was intraperitoneally injected once a day for continuous 10 days from the day after the transplantation, and survival periods after the tumor transplantation were recorded.

DNA topoisomerase II = assay: DNA topoisomerase inhibition activity (DNA relaxation, agarose-gel electrophoresis); type: biochemical, murine; conditions: relaxation of supercoiled pBR 322 plasmid DNA, 37°C for 10 minutes, enzyme from L1210 nuclei
Description: (§3) In this experiment, as enzymes were used DNA topoisomerase I and DNA topoisomerase II obtained by purifying an extract from the nuclei of cells of L1210 murine leukemia by column chromatography using hydroxylapatite and phosphocellulose, respectively, and as a DNA was used supercoiled pBR 322 plasmid DNA.
(§4) Measurement of inhibition effect was made by the method disclosed in a literature, i. e. Okura et al., Biochem. Biophys. Res. Comm. 157, 183 - 189, 1988, namely by warming at 37°C for 10 minutes the supercoiled DNA in DNA topoisomerase I or DNA topoisomerase II solutions containing a drug in various concentrations, and then detecting the resultant topology changes of the DNA as changes of the electrophoretic images in agarose - gel electrophoresis.

DNA topoisomerase I = biological target: T1, DNA topoisomerase I (Mus musculus, UniProt Q04750); assay: as above; type: biochemical, murine; conditions: relaxation of supercoiled pBR 322 plasmid DNA, 37°C for 10 minutes, enzyme from L1210 nuclei; read-out: IC₅₀ DNA topoisomerase I (converted)
T1 construct: obtained by purifying an extract from the nuclei of cells of L1210 murine leukemia by column chromatography; endogenous in cells; host or cells: L1210 murine leukemia cells (nuclear extract, purified on hydroxylapatite / phosphocellulose columns)
T1 sequence (Q04750 1-767): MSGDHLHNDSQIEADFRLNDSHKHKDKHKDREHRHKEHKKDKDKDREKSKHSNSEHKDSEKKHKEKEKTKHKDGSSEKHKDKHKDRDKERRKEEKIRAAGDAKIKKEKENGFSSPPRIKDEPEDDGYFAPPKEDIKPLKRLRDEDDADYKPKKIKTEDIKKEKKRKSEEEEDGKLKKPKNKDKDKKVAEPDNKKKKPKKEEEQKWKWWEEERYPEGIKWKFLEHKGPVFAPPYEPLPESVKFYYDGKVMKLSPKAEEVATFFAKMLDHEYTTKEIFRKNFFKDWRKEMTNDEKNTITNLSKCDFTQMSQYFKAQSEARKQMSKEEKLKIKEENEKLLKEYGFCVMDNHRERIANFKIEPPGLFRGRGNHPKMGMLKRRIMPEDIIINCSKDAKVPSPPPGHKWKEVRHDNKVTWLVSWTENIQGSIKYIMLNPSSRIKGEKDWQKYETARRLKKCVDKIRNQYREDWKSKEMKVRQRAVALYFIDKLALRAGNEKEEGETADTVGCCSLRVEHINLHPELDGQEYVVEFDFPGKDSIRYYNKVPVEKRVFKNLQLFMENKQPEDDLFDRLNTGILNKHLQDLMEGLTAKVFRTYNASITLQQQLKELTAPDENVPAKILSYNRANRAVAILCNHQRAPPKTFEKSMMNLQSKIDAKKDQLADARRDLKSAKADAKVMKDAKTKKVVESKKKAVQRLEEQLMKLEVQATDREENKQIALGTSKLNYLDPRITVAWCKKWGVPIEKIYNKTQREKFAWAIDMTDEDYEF
Description: as §3, §4

P388/V = assay: Proliferation inhibition, drug-sensitive P388 cells (MTT method); type: cell-based, murine; conditions: Mus musculus, P388, 72 h, 3 days culture, read-out: IC₅₀ P388/V
Description: (§5) Proliferation inhibition effects againt P388/multiple drug - resistant cells were measured using vincristine and adriamycin as comparative compounds.
(§6) In this experiment, a drug - sensitive strain (P388/S) of a murine leukemia cell P388 and a drug - resistant strain (P388/VCR, T. Turuo, H. Iida, S. Tsukagoshi, et al., Cancer Research 42, 4730 - 4733, 1982) were suspended respectively in RPMI 1640 media containing a drug in various concentrations, 10 % fetal bovine serum and 20 µ M β - mercaptoethanol, respectively, and seeded in a 96 - well microtest plate in a number of 10⁴ cells/well, and cultured at 37°C under CO₂ gas for 3 days. Calculation of 50% proliferation inhibition concentration (IC₅₀) was made by the MTT method (M. C. Alley, D. A. Scudiero, A. Monks, et al., Cancer Research 48, 589 - 601, 1988).

P388/VCR = assay: Proliferation inhibition, multiple drug-resistant P388 cells (MTT method); type: cell-based, murine; conditions: Mus musculus, 72 h, 3 days culture, read-out: IC₅₀ P388/VCR
Description: as §5, §6

[1] = Acute toxicity against a mouse; type: in vivo, CDF₁ mice; conditions: 5 mg/kg intravenously, observation for one week
Description: 5 mg/kg portions of the compound of Example 9 were intravenously injected into CDF₁ mice (♀, 5 weeks old) according to a conventional manner, respectively.

P388 = assay: Life-span prolonging effect on P388 leukemia-bearing mice; type: in vivo, CDF₁ mice
Description: as §2

[2] = dose 0.020 mg/kg intraperitoneally once a day for 10 days
[3] = dose 0.078 mg/kg intraperitoneally once a day for 10 days
[4] = dose 0.313 mg/kg intraperitoneally once a day for 10 days
[5] = 72 h, L1210 cells, cultured 3 days, Coulter counter

Row | Structure (SMILES) | MIC (S.aureus BB5769) | MIC (S.aureus BB5703) | MIC (S.aureus JS1) | Mean survival days L1210 (L1210; [2]) | T/C % L1210 (L1210; [2]) | Mean survival days L1210 (L1210; [3]) | T/C % L1210 (L1210; [3]) | Mean survival days L1210 (L1210; [4]) | T/C % L1210 (L1210; [4]) | effect at an administration quantity of 0.02 mg/kg (L1210) | IC₅₀ DNA topoisomerase II (DNA topoisomerase II) | IC50 (DNA topoisomerase I) | IC50 (P388/V) | IC50 (P388/VCR) | IC50 (L1210 cells; [5]) | also measured
1 | N[C@@H]1C=CC[C@@H]2CN(c3c(F)cc4c(=O)c(C(=O)O)cn(C5CC5)c4c3F)C[C@@H]21.O=C(O)C(F)(F)F (relative stereo) [Compound of Ex.1, 7 - [(1R*, 2R*, 6S*) - 2 - amino - 8 - azabicyclo [4.3.0]non - 3 - en - 8 - yl] - 1 - cyclopropyl - 6, 8 - difluoro - 1, 4 - dihydro-4 - oxo - 3 - quinolinecarboxylic acid trifluoroacetate] | < 6 ng/mL | < 6 ng/mL | < 6 ng/mL |  |  |  |  |  |  |  |  |  |  |  |  | 
2 | CN[C@@H]1C=CC[C@@H]2CN(c3c(F)cc4c(=O)c(C(=O)O)cn(C5CC5)c4c3F)C[C@@H]21.O=C(O)C(F)(F)F (relative stereo) [Compound of Ex.2, 1 - cyclopropyl - 6, 8 - difluoro - 1, 4 - dihydro - 7 - [(1R*, 2R*, 6S*) - 2 - (N - methylamino) - 8 - azabicyclo [4.3.0]non - 3 - en - 8 - yl] - 4 - oxo - 3 - quinolinecarboxylic acid trifluoroacetate] | < 6 ng/mL | < 6 ng/mL | < 6 ng/mL |  |  |  |  |  |  |  |  |  |  |  |  | 
3 | COc1c(N2C[C@H]3CC=C[C@@H](N)[C@H]3C2)c(F)cc2c(=O)c(C(=O)O)cn(C3CC3)c12 (relative stereo) [Compound of Ex.11, (-) - 7 - [(1R*, 2R*, 6S*) - 2 - amino - 8 - azabicyclo [4.3.0]non - 3 - en - 8 - yl] - 1 - cyclopropyl - 6 - fluoro - 1, 4 - dihydro - 8 - methoxy - 4 - oxo - 3 - quinolinecarboxlic acid hydrochloride] |  |  |  | 25.8 days | 188% | > 50.8 days | 371% | 16.4 days | 120% | effective | 2 µg/mL | 3020 µM |  |  |  | IC50 (L1210 cells; L1210, 72 h): 0.032 µg/mL
4 | Cl.N[C@@H]1C=CC[C@@H]2CN(c3c(F)cc4c(=O)c(C(=O)O)cn(C5CC5)c4c3F)C[C@@H]21 (single isomer, unassigned) [Compound of Ex.9, (-) - 7 - [(1R*, 2R*, 6S*) - 2 - amino - 8 - azabicyclo [4.3.0]non - 3 - en - 8 - yl] - 1 - cyclopropyl - 6, 8 - difluoro - 1, 4 - dihydro - 4 - oxo - 3 - quinolinecarboxylic acid hydrochloride] |  |  |  | 31.0 days | 226% | 32.4 days | 236% | 21.2 days | 155% | effective | 2 µg/mL | 457 µM | 0.018 µg/mL | 0.018 µg/mL | 0.019 µg/mL | death in acute toxicity test [1]: No case of death; Mean survival days P388 (P388; [2]): 12.0 days; T/C % P388 (P388; [2]): 107%; Mean survival days P388 (P388; [3]): 14.0 days; T/C % P388 (P388; [3]): 125%; Mean survival days P388 (P388; [4]): 16.4 days; T/C % P388 (P388; [4]): 146%
5 | Cl.Nc1c(F)c(N2C[C@H]3CC=C[C@@H](N)[C@H]3C2)c(F)c2c1c(=O)c(C(=O)O)cn2C1CC1 (single isomer, unassigned) [Compound of Ex.13, (-) - 5 - amino - 7 - [(1R*, 2R*, 6S*) 2 - amino - 8 - azabicyclo [4.3.0]non - 3 - en - 8 - yl] - 1 - cyclopropyl - 6, 8 - difluoro - 1, 4 - dihydro - 4 - oxo - 3 - quinolinecarboxylic acid hydrochloride] | < 6 ng/mL | < 6 ng/mL | < 6 ng/mL |  |  |  |  |  |  |  | 4 µg/mL | 221 µM |  |  | 0.0015 µg/mL | 
6 | COc1cccc2c1C(=O)c1c(O)c3c(c(O)c1C2=O)C[C@@](O)(C(=O)CO)C[C@@H]3O[C@H]1C[C@H](N)[C@H](O)[C@H](C)O1 [Adriamycin, adriamycin] |  |  |  |  |  |  |  |  |  |  |  |  | 0.021 µg/mL (≈ 0.0386 µM) | 0.063 µg/mL (≈ 0.116 µM) |  | 
7 | CC[C@@]1(O)C(=O)OCc2c1cc1n(c2=O)Cc2cc3ccccc3nc2-1 [Camptothecin, camptothecin, reference compound] |  |  |  |  |  |  |  |  |  |  | > 10 µg/mL |  |  |  | 0.04 µg/mL (≈ 0.115 µM) | 
8 | COc1cc([C@@H]2c3cc4c(cc3[C@@H](O[C@@H]3O[C@@H]5CO[C@@H](C)O[C@H]5[C@H](O)[C@H]3O)[C@H]3COC(=O)[C@H]23)OCO4)cc(OC)c1O [Etoposide, etoposide, reference compound] |  |  |  | 14.2 days | 104% | 22.8 days | 166% | 31.4 days | 229% | no effect |  |  |  |  | 0.021 µg/mL (≈ 0.0357 µM) | Mean survival days P388 (P388; [2]): 12.8 days; T/C % P388 (P388; [2]): 114%; Mean survival days P388 (P388; [3]): 16.6 days; T/C % P388 (P388; [3]): 148%; Mean survival days P388 (P388; [4]): 22.2 days; T/C % P388 (P388; [4]): 198%
9 | CC[C@]1(O)C[C@H]2CN(CCc3c([nH]c4ccccc34)[C@@](C(=O)OC)(c3cc4c(cc3OC)N(C=O)[C@H]3[C@@](O)(C(=O)OC)[C@H](OC(C)=O)[C@]5(CC)C=CCN6CC[C@]43[C@@H]65)C2)C1 [Vincristine, vincristine] |  |  |  |  |  |  |  |  |  |  |  |  | 0.00032 µg/mL (≈ 0.000388 µM) | 0.019 µg/mL (≈ 0.023 µM) |  | 
